Experimental data as given in PMC8640510 (Cell Death and Differentiation, 2021).

Legend:
HCoV-OC43 = HCoV-OC43 viral infectivity assay; type: cell-based; conditions: HCoV-OC43, HMC3 cells; combination with remdesivir; #79: 60 μM, #96: […] μM, #102: 25 μM
Protocol: HMC3 cells were seeded into black 96-well plates at 90% confluency. The next day, media was removed and replaced with complete media containing compounds/carrier 2 h prior to infection. After that, 5 μl of HCoV-OC43 virus was added to each well at an MOI of 0.005 for a final total volume of 100 μl/well. The plates were incubated at 33 °C. The viral suspension was removed after 12 h and drugs were added back to the cells to further incubate at 33 °C for 36 h. At 48 h post infection, cells were fixed with 4 % PFA in the media for 15 min. Residual PFA was quenched with a 50 mM NH4Cl and 100 mM NaCl solution. Cells were permeabilized and blocked in 5% FBS, 3% BSA, 0.05% Triton X-100 and 0.005% NaN3 in PBS for an hour. Anti-N antibody (Sigma 542-7D) was diluted in 4% FBS in PBS at 1:1000 dilution and was applied at 4 °C for 16 h. After several washing steps, cells were stained with AlexaFluor 594 and DAPI. For determination of cytotoxicity, HMC3 cells were seeded into opaque white wall 96-well plates. The following day, media was removed, replaced with media containing compounds/carrier and incubated for 48 h. After 48 h, cell viability was determined using alamarBlue™ Cell Viability Reagent using an Infinite 200 PRO microplate reader (Tecan).
Plates were scanned on a Citation 5 Imaging Multi-Mode Reader (BioTek). Gen5 software (version 3.10) was used for both image acquisition and analysis. A total number of 16 images/well were collected at 4x magnification to span the entire well. DAPI channel was used to build primary masks for the nucleus. Secondary masks were built within a 15 μm ring around the primary nuclear mask. Infection efficiencies were calculated from the ratio of the total fluorescence intensity within the secondary mask and the total area of the secondary mask for each well. Microscope images were prepared for publication using ImageJ (version 1.53i).

SARS-CoV-2 = SARS-CoV-2 viral infectivity assay; type: cell-based; conditions: A549+ACE2 cells; for direct antiviral effect on SARS-CoV-2 on their own: 72 h post infection, compound alone; for synergy with remdesivir, SARS-CoV-2: combination with remdesivir, #79: 60 μM, #96: […] μM, #102: 25 μM
[1] = clinical studies in Japan, gastric diseases; cited from earlier work

SMILES | lowering of the EC50 of remdesivir (HCoV-OC43) | direct antiviral effect on SARS-CoV-2 on their own (SARS-CoV-2) | synergy with remdesivir, SARS-CoV-2 (SARS-CoV-2) | tolerability in humans [1]
CC(C)=CCOc1ccc(/C=C/C(=O)c2ccc(OCC=C(C)C)cc2OCC(=O)O)cc1 [#102, Sofalcone, reference compound] | ~ 5 fold | no direct antiviral effect was detected | synergized with remdesivir | well tolerated by humans
CC(C)=CCc1c(O)ccc(C(=O)/C=C/c2ccc(O)cc2)c1O [#96, Isobavachalcone] | ~ 5 fold | no direct antiviral effect was detected | synergized with remdesivir | –
O=C(NCc1ccc(F)cc1)C1C(=O)N(O)C(=O)c2cc(C(F)(F)F)ccc21 (stereo not shown) [#79, 7-trifluoromethyl-N-(4-fluorobenzyl)−2-hydroxy-1,3-dioxo-4H-isoquinoline-4-carboxamide] | ~ 5 fold | no direct antiviral effect was detected | synergized with remdesivir | –
